Tested on: 422866-222-R5-J1-PDC complex spheroids viability
Assay: Anticancer human tumor 422866-222-R5-J1-PDC patient-derived pancreatic adenocarcinoma cell line growth inhibition [RAS]
Conditions: for IC50: curve of first compound; for viability, T/C: stronger effect = lower value
In short: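 Tumour cells grown as complex spheroids with HUVEC endothelial cells and mesenchymal stem cells, treated with RAS pathway inhibitor combinations. Each agent spans half-log steps from near clinical Cmax, or 10 microM where Cmax is unknown.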

[1] = second compound 0.00316 µM, first compound 0.0316 µM
[2] = second compound 0.00316 µM, first compound 0.1 µM
[3] = second compound 0.01 µM, first compound 0.0316 µM
[4] = second compound 0.01 µM, first compound 0.1 µM
[5] = second compound 0.0316 µM, first compound 0.0316 µM
[6] = second compound 0.0316 µM, first compound 0.1 µM
[7] = second compound 0.1 µM, first compound 0.0316 µM
[8] = second compound 0.1 µM, first compound 0.1 µM
[9] = second compound 0.316 µM, first compound 0.0316 µM
[10] = second compound 0.316 µM, first compound 0.1 µM
[11] = second compound 1 µM, first compound 0.0316 µM
[12] = second compound 1 µM, first compound 0.1 µM
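Note: spheroids exposed to compounds for 7 days.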
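Throughout, for viability, T/C: 100% = DMSO vehicle control viability.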

In the case of CC(C)NCC(C(=O)N1CCN(c2ncnc3c2C(C)CC3O)CC1)c1ccc(Cl)cc1 (centres undefined) + C=CC(=O)N1CCN(c2nc(OCC3CCCN3C)nc3c(F)c(-c4nc(N)cc(C)c4C(F)(F)F)c(Cl)cc23)C(C)C1, the IC50 (second compound 0.00316 µM) is reported as under 31.6 nM, the IC50 (second compound 0.01 µM) is reported as under 31.6 nM and the IC50 (second compound 0.0316 µM) is reported as under 31.6 nM. The IC50 (second compound 0.1 µM) was under 31.6 nM, the IC50 (second compound 0.316 µM) was under 31.6 nM and the IC50 (second compound 1 µM) was under 31.6 nM. For the same compound, the viability, T/C [1] was 27.2%, the viability, T/C [2] was 32.1% and the viability, T/C (second compound 0.00316 µM, first compound 0.316 µM) was 19.7%. For the same compound, the viability, T/C (second compound 0.00316 µM, first compound 1 µM) was 17%, the viability, T/C (second compound 0.00316 µM, first compound 3.16 µM) was 16.7% and the viability, T/C (second compound 0.00316 µM, first compound 10 µM) was 16.7%. The viability, T/C [3] was 23.3%, the viability, T/C [4] was 24.8% and the viability, T/C (second compound 0.01 µM, first compound 0.316 µM) was 17.9%. The viability, T/C (second compound 0.01 µM, first compound 1 µM) was 12.2%, the viability, T/C (second compound 0.01 µM, first compound 3.16 µM) was 12.6% and the viability, T/C (second compound 0.01 µM, first compound 10 µM) was 13.3%. It also gave a viability, T/C [5] of 27.9%, a viability, T/C [6] of 22% and a viability, T/C (second compound 0.0316 µM, first compound 0.316 µM) of 14.4%. For the same compound, the viability, T/C (second compound 0.0316 µM, first compound 1 µM) was 14.9%, the viability, T/C (second compound 0.0316 µM, first compound 3.16 µM) was 14.2% and the viability, T/C (second compound 0.0316 µM, first compound 10 µM) was 14.3%. The viability, T/C [7] was 21.6%, the viability, T/C [8] was 19.2% and the viability, T/C (second compound 0.1 µM, first compound 0.316 µM) was 15.2%. For the same compound, the viability, T/C (second compound 0.1 µM, first compound 1 µM) was 12%, the viability, T/C (second compound 0.1 µM, first compound 3.16 µM) was 13% and the viability, T/C (second compound 0.1 µM, first compound 10 µM) was 12.8%. The viability, T/C [9] was 24.1%, the viability, T/C [10] was 16.4% and the viability, T/C (second compound 0.316 µM, first compound 0.316 µM) was 14.8%. It also gave a viability, T/C (second compound 0.316 µM, first compound 1 µM) of 13.6%, a viability, T/C (second compound 0.316 µM, first compound 3.16 µM) of 12.7% and a viability, T/C (second compound 0.316 µM, first compound 10 µM) of 16.6%. It also gave a viability, T/C [11] of 23.6%, a viability, T/C [12] of 15.2% and a viability, T/C (second compound 1 µM, first compound 0.316 µM) of 16.7%. It also gave a viability, T/C (second compound 1 µM, first compound 1 µM) of 12.5%, a viability, T/C (second compound 1 µM, first compound 3.16 µM) of 13.9% and a viability, T/C (second compound 1 µM, first compound 10 µM) of 12.6%.

Compound CC(C)n1nc(-c2ccc3oc(N)nc3c2)c2c(N)ncnc21 + C=CC(=O)N1CCN(c2nc(OCC3CCCN3C)nc3c(F)c(-c4nc(N)cc(C)c4C(F)(F)F)c(Cl)cc23)C(C)C1 has an IC50 (second compound 0.00316 µM) of under 0.316 nM, an IC50 (second compound 0.01 µM) of under 0.316 nM and an IC50 (second compound 0.0316 µM) of under 0.316 nM. It also gave an IC50 (second compound 0.1 µM) of under 0.316 nM, an IC50 (second compound 0.316 µM) of under 0.316 nM and an IC50 (second compound 1 µM) of under 0.316 nM. The viability, T/C (second compound 0.00316 µM, first compound 0.000316 µM) was 34.9%, the viability, T/C (second compound 0.00316 µM, first compound 0.001 µM) was 35.1% and the viability, T/C (second compound 0.00316 µM, first compound 0.00316 µM) was 30.5%. It also gave a viability, T/C (second compound 0.00316 µM, first compound 0.01 µM) of 23.2%, a viability, T/C [1] of 18.3% and a viability, T/C [2] of 14.8%. For the same compound, the viability, T/C (second compound 0.01 µM, first compound 0.000316 µM) was 30.3%, the viability, T/C (second compound 0.01 µM, first compound 0.001 µM) was 28.9% and the viability, T/C (second compound 0.01 µM, first compound 0.00316 µM) was 22.9%. The viability, T/C (second compound 0.01 µM, first compound 0.01 µM) was 19.9%, the viability, T/C [3] was 14.3% and the viability, T/C [4] was 14.1%. The viability, T/C (second compound 0.0316 µM, first compound 0.000316 µM) was 29.9%, the viability, T/C (second compound 0.0316 µM, first compound 0.001 µM) was 26.5% and the viability, T/C (second compound 0.0316 µM, first compound 0.00316 µM) was 23.4%. It also gave a viability, T/C (second compound 0.0316 µM, first compound 0.01 µM) of 18.2%, a viability, T/C [5] of 14% and a viability, T/C [6] of 12.3%. The viability, T/C (second compound 0.1 µM, first compound 0.000316 µM) was 25.5%, the viability, T/C (second compound 0.1 µM, first compound 0.001 µM) was 22.9% and the viability, T/C (second compound 0.1 µM, first compound 0.00316 µM) was 18.1%. It also gave a viability, T/C (second compound 0.1 µM, first compound 0.01 µM) of 18.3%, a viability, T/C [7] of 16.8% and a viability, T/C [8] of 11.3%. It also gave a viability, T/C (second compound 0.316 µM, first compound 0.000316 µM) of 25%, a viability, T/C (second compound 0.316 µM, first compound 0.001 µM) of 20.9% and a viability, T/C (second compound 0.316 µM, first compound 0.00316 µM) of 20.6%. The viability, T/C (second compound 0.316 µM, first compound 0.01 µM) was 18.1%, the viability, T/C [9] was 13.6% and the viability, T/C [10] was 10.5%. The viability, T/C (second compound 1 µM, first compound 0.000316 µM) was 21.3%, the viability, T/C (second compound 1 µM, first compound 0.001 µM) was 20.2% and the viability, T/C (second compound 1 µM, first compound 0.00316 µM) was 24.6%. For the same compound, the viability, T/C (second compound 1 µM, first compound 0.01 µM) was 17.2%, the viability, T/C [11] was 17.3% and the viability, T/C [12] was 13.8%.
